The values below come from patent US7109229B2, “Methods and compounds for treating proliferative diseases” (Eli Lilly and Company, priority 2000, dated 2006).

Marks after values point to notes of the source that are not given here.

For one test, the system named is H460 cells. The test can be described thus: Cell growth inhibition assay (MTT), H460. The format is cell-based. To be noted: Homo sapiens, NCI-H460, 72 h drug exposure. From the text:
(§1) A major in vitro test is the cell growth inhibition test. In this test, the concentration of the test compound that causes a 50% inhibition of cell growth for a selected cell line. A low value is desirable in this test. This test is done according to a standard protocol (SCHULTZ, R. M., et al, Oncology Res. 5, 223–228 (1993)). Another major in vitro test is the G1 arrest test. This test measures the proportion of the cells that are arrested in the G1 phase relative to control. A result above 1.5 is desirable in this test. […] The results are expressed as a percentage inhibition of ser-780 pRb phosphorylation in drug treated cells versus control cells treated with DMSO alone. […]

Test [1] has as its system HCT116 cells. The test can be described thus: Cell growth inhibition assay (MTT), HCT116. The class given is cell-based. The following applies: Homo sapiens, HCT-116, 72 h drug exposure.
Excerpt: as §1

Test [2] concerns Ser-780 pRb phosphorylation in HCT116 cells. Description: Inhibition of Rb phosphorylation assay. The format is cell-based, human. To be noted: HCT116 cells after 24 h incubation period.
Excerpt: as §1
Human HCT116 colon carcinoma cell line was purchased from American Tissue Culture Collection (Rockville, Md.) and maintained as monolayer in RPMI-1640 with L-Glutamine and 25 mM HEPES supplemented with 10% fetal bovine serum in a 37° C. incubator with a 10% CO2 atmosphere. […] Protein concentration was determined by the Bio-Rad DC protein assay (Bio-Rad, Hercules, Calif.). […]

The subject of test [3] is HCT116 cells. The test can be described thus: G1 arrest test, cell cycle analysis using flow cytometry. The class given is cell-based, human. The following applies: HCT116 cells after 24 h incubation period; at IC50 conc.
Excerpt: as §1
Background: In flow cytometry, cells or beads pass a laser one at a time.

The target in test [4] is T1, Cyclin D1-cdk4 (Homo sapiens, UniProt P11802). Description: Cyclin D1-cdk4 kinase activity with the ING peptide as substrate. The class given is biochemical. How it is done:
The compounds of Formula I were tested using in vitro. An important in vitro test is the ability of the compound to inhibit the activity of the CDK4 enzyme. This test is done using Rb^ING and/or Rb^21 substrates as described in the literature (KONSTANTINIDIS, A. K., et al, J. Biol. Chem. 273, 26506–26515 (1998)). The test yields the micromolar concentration of the test compound, which produces a 50% inhibition of the CDK4 enzyme activity.
Assay of Cyclin D1-cdk4 Kinase Activity with the ING Peptide as Substrate.
The cyclin D1-cdk4 kinase activity of a compound was assayed by preparing a 100 ul reaction at the following concentrations: 35 mM Hepes pH 7.0, 10 mM MgCl2, 300 uM ATP, 200 uM ING peptide, 1.0 uCi of γ-^33P-ATP, 4.34 ug of cyclin D-cdk4 enzyme, 4% DMSO, and various concentrations of inhibitor. The reaction was incubated at room temperature (about 74° F.) for 60 minutes, and then terminated by the addition of 100 ul of 10% phosphoric acid. Next, the reaction was filtered through a Millipore Multiscreen-PH Plate—Catalog number MAPH NOB 10, and the plate was washed 2 times with 320 ul each of 0.5% phosphoric acid, followed by the addition of 100 ul of scintillation fluid and quantitation on a Packard Instruments, Top Count, scintillation counter.

Test [5] addresses T1, Cyclin D1-cdk4. The test can be described thus: Cyclin D1-cdk4 kinase activity with the Rb21 protein as substrate. The class given is biochemical. Here is the method: The compounds of Formula I were tested using in vitro. An important in vitro test is the ability of the compound to inhibit the activity of the CDK4 enzyme. This test is done using Rb^ING and/or Rb^21 substrates as described in the literature ([…]., et al, J. Biol. Chem. 273, 26506-26515 (1998)). […] The reaction was incubated at room temperature (about 74° F.) for 60 minutes, and then terminated by the addition of 100 ul of 25% trichloroacetic acid. Next, the reaction was filtered through a Millipore Multiscreen-FC Plate-Catalog number MAFC NOB 10, and the plate was washed 2 times with 320 ul each of 10% trichloroacetic acid, followed by the addition of 100 ul of scintillation fluid and quantitation on a Packard Instruments, Top Count, scintillation counter.

T1 sequence (P11802 whole entry): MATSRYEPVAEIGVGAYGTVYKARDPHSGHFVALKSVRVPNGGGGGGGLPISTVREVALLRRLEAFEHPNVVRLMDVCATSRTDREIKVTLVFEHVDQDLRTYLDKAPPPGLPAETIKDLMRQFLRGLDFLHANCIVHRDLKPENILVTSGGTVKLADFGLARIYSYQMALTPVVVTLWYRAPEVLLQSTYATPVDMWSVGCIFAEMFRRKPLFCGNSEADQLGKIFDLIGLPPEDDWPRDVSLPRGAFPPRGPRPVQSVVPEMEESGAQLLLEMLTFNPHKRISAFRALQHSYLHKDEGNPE
T1 sequence (P24385 whole entry partner): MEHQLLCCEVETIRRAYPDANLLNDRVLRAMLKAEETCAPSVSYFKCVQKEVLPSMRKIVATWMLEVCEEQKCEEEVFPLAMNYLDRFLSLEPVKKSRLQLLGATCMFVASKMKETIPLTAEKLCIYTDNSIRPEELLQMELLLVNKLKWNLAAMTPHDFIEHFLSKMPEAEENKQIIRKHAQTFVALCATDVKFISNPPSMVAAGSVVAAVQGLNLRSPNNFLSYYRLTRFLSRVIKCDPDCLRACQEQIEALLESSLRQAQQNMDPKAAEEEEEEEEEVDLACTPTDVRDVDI

In the case of `COc1ccc2c(c1)[nH]c1c3ccc4ccn(C)c4c3c3c(c21)C(=O)NC3=O` [Example 1, 11-Methoxy-5-methyl-5H,13H-indolo[6,7-a]pyrrolo[3,4-c]carbazole-6,8-dione], the IC50 with H460 cells turned out to be 1.09 µM; with HCT116 cells [1], 1.8 µM; on Cyclin D1-cdk4 [4] (Table 1, ING peptide substrate, read-out: RbING IC50), 0.0431 µM; at Cyclin D1-cdk4 [4] (Table 2, Rb^ING substrate, read-out: CDK4 Inhibition (IC50/μM) Rb^ING) it was 0.04 µM; on Cyclin D1-cdk4 [5] (Table 1, Rb21 protein substrate, read-out: Rb21 IC50) it was 0.00165 µM; at Cyclin D1-cdk4 [5] (Table 2, Rb^21 substrate, read-out: CDK4 Inhibition (IC50/μM) Rb^21) it was 0.001 µM. Besides, in test [2] (compound at 3XIC50), the “% Inhibtion of Rb Phosphorylation in vitro @3XIC50” value is listed as 97%. In addition, in test [2] (compound at IC50), the “% Inhibtion of Rb Phosphorylation in vitro @IC50” value came to 90%. Also, the “G1 Arrest; x vs control” value in the test with HCT116 cells [3] was 2.6^c x vs control.
